Patent US20240217928A1, “HALOACETHYDRAZIDES USEFUL AS AEP INHIBITORS” (Hoffmann-La Roche Inc., priority 2021, published 2024)
Like-named read-outs stand apart in the source and are kept apart here.

Target: T1, rhlegumain (hLGMN(V18-Y433)_VD-8xHis-S2-r) (Homo sapiens, UniProt Q99538)
T1 construct: construct name: hLGMN(V18-Y433)_VD-8xHis-S2-r; VD linker (C); 8xHis (C); made in house
T1 sequence (Q99538 26-323 limits assumed): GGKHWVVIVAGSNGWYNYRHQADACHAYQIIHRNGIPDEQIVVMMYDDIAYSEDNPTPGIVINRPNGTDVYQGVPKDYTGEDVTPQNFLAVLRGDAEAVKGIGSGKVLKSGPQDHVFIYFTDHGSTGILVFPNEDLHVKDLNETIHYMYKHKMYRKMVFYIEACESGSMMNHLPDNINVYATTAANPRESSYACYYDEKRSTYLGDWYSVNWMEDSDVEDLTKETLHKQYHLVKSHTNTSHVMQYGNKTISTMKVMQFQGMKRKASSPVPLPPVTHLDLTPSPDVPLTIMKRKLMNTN
Experiment: AEP activity enzymatic assay
Type: biochemical
Experimental: Prior to the assay measurements, rhlegumain (in house, construct name: hLGMN(V18-Y433)_VD-8xHis-S2-r) is activated by diluting it from 1.1 mg/ml to 0.1 mg/ml (11-fold) in activation buffer (50 mM sodium acetate, 100 mM NaCl, pH 4.0) and incubation at 37° C. for 2 h. The activated enzyme solution stock is stored at −80° C.

[1] = 0.5 nM legumain, 0.5 uM Z-Ala-Ala-Asn-Rh110-(D-Pro), pH 5.8, 30 min preincubation at 25° C., read-out: IC50 (AEP)

Structure (SMILES) | IC50 | IC50 [1]
NC(=O)CN(NC(=O)[C@@H]1CCCN1C(=O)C(F)(F)c1ccccc1)C(=O)CF [Example 1, 2-[(2-Fluoroacetyl)-[[(2S)-1-(2,2-Difluoro-2-Phenyl-Acetyl)Pyrrolidine-2-Carbonyl]Amino]Amino]Acetamide] | 3.6 nM | –
NC(=O)CN(NC(=O)[C@@H]1CCCN1C(=O)CCc1ccccc1)C(=O)CF [Example 2, 2-[(2-Fluoroacetyl)-[[(2S)-1-(3-Phenylpropanoyl)Pyrrolidine-2-Carbonyl]Amino]Amino]Acetamide] | 72.9 nM | –
NC(=O)CN(NC(=O)[C@@H]1CCCN1C(=O)C1(c2ccccc2)CCC1)C(=O)CF [Example 3] | 3.6 nM | –
NC(=O)CN(NC(=O)[C@@H]1CCCN1C(=O)C1(c2ccc(Cl)cc2)CCC1)C(=O)CF [Example 4, 2-[(2-Fluoroacetyl)-[[(2S)-1-[1-(4-Chlorophenyl)Cyclobutanecarbonyl]Pyrrolidine-2-Carbonyl]Amino]Amino]Acetamide] | 1.3 nM | –
NC(=O)CN(NC(=O)[C@@H]1CCCN1C(=O)Cc1ccccc1)C(=O)CF [Example 5, 2-[(2-Fluoroacetyl)-[[(2S)-1-(2-Phenylacetyl)Pyrrolidine-2-Carbonyl]Amino]Amino]Acetamide] | 22.2 nM | –
NC(=O)CN(NC(=O)[C@@H]1CCCN1C(=O)C1(c2ccc(Cl)cc2)CC1)C(=O)CF [Example 6, 2-[(2-Fluoroacetyl)-[[(2S)-1-[1-(4-Chlorophenyl)Cyclopropanecarbonyl]Pyrrolidine-2-Carbonyl]Amino]Amino]Acetamide] | 2.7 nM | –
NC(=O)CN(NC(=O)[C@@H]1CCCN1S(=O)(=O)c1ccccc1)C(=O)CF [Example 7, 2-[(2-Fluoroacetyl)-[[(2S)-1-(Benzenesulfonyl)Pyrrolidine-2-Carbonyl]Amino]Amino]Acetamide] | 61.7 nM | –
NC(=O)CN(NC(=O)[C@@H]1CCCN1C(=O)C1(c2ccccc2)CC1)C(=O)CF [Example 8, 2-[(2-Fluoroacetyl)-[[(2S)-1-(1-Phenylcyclopropanecarbonyl)Pyrrolidine-2-Carbonyl]Amino]Amino]Acetamide] | 5 nM | –
NC(=O)CN(NC(=O)[C@@H]1CCCN1S(=O)(=O)Cc1ccccc1)C(=O)CF [Example 9, 2-[(2-Fluoroacetyl)-[[(2S)-1-Benzylsulfonylpyrrolidine-2-Carbonyl]Amino]Amino]Acetamide] | 83.6 nM | –
NC(=O)CN(NC(=O)[C@@H]1CCCN1S(=O)(=O)CCc1ccccc1)C(=O)CF [Example 10, 2-[(2-Fluoroacetyl)-[[(2S)-1-(2-Phenylethylsulfonyl)Pyrrolidine-2-Carbonyl]Amino]Amino]Acetamide] | 33.8 nM | –
C#Cc1ccc(C2(C(=O)N3CCC[C@H]3C(=O)NN(CC(N)=O)C(=O)CF)CC2)cc1 [Example 11, 2-[(2-Fluoroacetyl)-[[(2S)-1-[1-(4-Ethynylphenyl)Cyclopropanecarbonyl]Pyrrolidine-2-Carbonyl]Amino]Amino]Acetamide] | 1.2 nM | –
COc1ccc(-c2ccc(S(=O)(=O)N3CCC[C@H]3C(=O)NN(CC(N)=O)C(=O)CF)cc2)cc1 [Example 13, 2-[(2-Fluoroacetyl)-[[(2S)-1-[4-(4-Methoxyphenyl)Phenyl]Sulfonylpyrrolidine-2-Carbonyl]Amino]Amino]Acetamide] | – | 1.5 nM
C#CCOc1ccc(C2(C(=O)N3CCC[C@H]3C(=O)NN(CC(N)=O)C(=O)CF)CC2)cc1 [Example 14, 2-[(2-Fluoroacetyl)-[[(2S)-1-[1-(4-Prop-2-Ynoxyphenyl)Cyclopropanecarbonyl]Pyrrolidine-2-Carbonyl]Amino]Amino]Acetamide] | 1.4 nM | –
COc1ccc(-c2ccc(S(=O)(=O)N3CCC[C@H]3C(=O)NN(CC(N)=O)C(=O)CCl)cc2)cc1 [Example 17, 2-[(2-Chloroacetyl)-[[(2S)-1-[4-(4-Methoxyphenyl)Phenyl]Sulfonylpyrrolidine-2-Carbonyl]Amino]Amino]Acetamide] | – | 0.3 nM
